Reference: ChEMBL document CHEMBL1201862, “PubChem BioAssay data set” (2004)
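Five concentrations, 48 hours, 96-well plates. GI50 is the concentration that inhibits growth by half.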 Active and inactive are the calls of the source. Rule as the data show it: active = GI50 up to about 1.1 µM and inactive = higher.

How the values were obtained:
Assay in all cases: NCI anticancer screen, dose series, 48 h
ACHN = system: ACHN
TK-10 = system: TK-10
786-0 = system: 786-0
HCC 2998 = system: HCC 2998
NCI-H226 = system: NCI-H226
KM12 = system: KM12
UACC-257 = system: UACC-257
COLO 205 = system: COLO 205
LOX IMVI = system: LOX IMVI
M14 = system: M14
IGROV-1 = system: IGROV-1
DU-145 = system: DU-145
SR = system: SR
OVCAR-4 = system: OVCAR-4
OVCAR-3 = system: OVCAR-3
OVCAR-5 = system: OVCAR-5
HOP-62 = system: HOP-62
MOLT-4 = system: MOLT-4
MDA-N = system: MDA-N
SK-MEL-28 = system: SK-MEL-28

SMILES	GI50 (ACHN)	GI50 (TK-10)	GI50 (786-0)	GI50 (HCC 2998)	GI50 (NCI-H226)	GI50 (KM12)	GI50 (UACC-257)	GI50 (COLO 205)	GI50 (LOX IMVI)	GI50 (M14)	GI50 (IGROV-1)	GI50 (DU-145)	GI50 (SR)	GI50 (OVCAR-4)	GI50 (OVCAR-3)	GI50 (OVCAR-5)	GI50 (HOP-62)	GI50 (MOLT-4)	GI50 (MDA-N)	GI50 (SK-MEL-28)
Cc1csc(NNC(N)=O)n1	> 100 µM (inactive)	> 100 µM (inactive)	> 100 µM (inactive)	> 100 µM (inactive)	> 100 µM (inactive)	> 100 µM (inactive)	> 100 µM (inactive)	> 100 µM (inactive)	> 100 µM (inactive)	> 100 µM (inactive)	> 100 µM (inactive)	> 100 µM (inactive)	25.6 µM (inactive)	> 100 µM (inactive)	> 100 µM (inactive)	> 100 µM (inactive)	> 100 µM (inactive)	> 100 µM (inactive)	> 100 µM (inactive)	> 100 µM (inactive)
COc1ccc(/N=N/c2c(-c3c(OC)cc4occc4c3OC)[nH]c(=O)c(C#N)c2C)cc1	> 100 µM (inactive)	> 100 µM (inactive)	> 100 µM (inactive)	> 100 µM (inactive)	> 100 µM (inactive)	> 100 µM (inactive)	> 100 µM (inactive)	> 100 µM (inactive)	> 100 µM (inactive)	> 100 µM (inactive)	76.2 µM (inactive)	> 100 µM (inactive)	> 100 µM (inactive)	> 100 µM (inactive)	> 100 µM (inactive)	> 100 µM (inactive)	> 100 µM (inactive)	> 100 µM (inactive)	> 100 µM (inactive)	> 100 µM (inactive)
CC1(C)CC(C)(C)C1=NNC(N)=O	> 100 µM (inactive)	> 100 µM (inactive)	> 100 µM (inactive)	> 100 µM (inactive)	> 100 µM (inactive)	> 100 µM (inactive)	> 100 µM (inactive)	> 100 µM (inactive)	> 100 µM (inactive)	> 100 µM (inactive)	> 100 µM (inactive)	> 100 µM (inactive)	> 100 µM (inactive)	> 100 µM (inactive)	> 100 µM (inactive)	> 100 µM (inactive)	> 100 µM (inactive)	> 100 µM (inactive)	> 100 µM (inactive)	> 100 µM (inactive)
COc1ccc(C[C@H]2NC(=O)/C=C/C[C@@H]([C@H](C)[C@H]3O[C@@H]3c3ccccc3)OC(=O)[C@H](CC(C)C)OC(=O)[C@H](C)CNC2=O)cc1	5.93e-05 µM (active)	> 0.0001 µM (active)	1.25e-05 µM (active)	4.45e-05 µM (active)	> 4.41e-05 µM (active)	3.93e-05 µM (active)	> 5.89e-05 µM (active)	1.99e-05 µM (active)	1.74e-05 µM (active)	1.72e-05 µM (active)	3.24e-05 µM (active)	2.96e-05 µM (active)	3.36e-06 µM (active)	> 0.0001 µM (active)	1.58e-05 µM (active)	3.94e-05 µM (active)	2.47e-05 µM (active)	2.85e-05 µM (active)	5.31e-06 µM (active)	4.83e-05 µM (active)
Sc1nn2c(COc3cc(Cl)c(OCc4nnc5sc(S)nn45)cc3Cl)nnc2s1	36.1 µM (inactive)	> 100 µM (inactive)	39.5 µM (inactive)	36.1 µM (inactive)	> 100 µM (inactive)	> 100 µM (inactive)	> 100 µM (inactive)	> 100 µM (inactive)	32.8 µM (inactive)	> 100 µM (inactive)	41.6 µM (inactive)	78.3 µM (inactive)	30.1 µM (inactive)	51.8 µM (inactive)	30.5 µM (inactive)	> 100 µM (inactive)	> 100 µM (inactive)	31.3 µM (inactive)	33.6 µM (inactive)	31.3 µM (inactive)
COC(=O)CN(CC(O)C(NC(C)=O)C(O)C=O)C(=O)OCc1ccccc1 (stereo not given)	> 100 µM (inactive)	> 100 µM (inactive)	> 100 µM (inactive)	> 100 µM (inactive)	> 100 µM (inactive)	> 100 µM (inactive)	> 100 µM (inactive)	> 100 µM (inactive)	> 100 µM (inactive)	> 100 µM (inactive)	> 100 µM (inactive)	> 100 µM (inactive)	> 100 µM (inactive)	> 100 µM (inactive)	> 100 µM (inactive)	> 100 µM (inactive)	> 100 µM (inactive)	> 100 µM (inactive)	> 100 µM (inactive)	> 100 µM (inactive)
O=[N+]([O-])/C(C(Cl)=C(Cl)Cl)=C(/Cl)SCc1ccccc1	2.89 µM (inactive)	5.86 µM (inactive)	1.65 µM (inactive)	24.8 µM (inactive)	25.2 µM (inactive)	18.8 µM (inactive)	3.39 µM (inactive)	1.74 µM (inactive)	11.3 µM (inactive)	1.83 µM (inactive)	20.7 µM (inactive)	17.3 µM (inactive)	1.43 µM (inactive)	2.85 µM (inactive)	3.66 µM (inactive)	5.09 µM (inactive)	15.2 µM (inactive)	0.393 µM (active)	1.84 µM (inactive)	5.65 µM (inactive)
O=[N+]([O-])c1cccc2nc3ccccc3c(NCCC[N+]3([O-])CCCCC3)c12	5.37 µM (inactive)	3.06 µM (inactive)	0.438 µM (active)	0.136 µM (active)	0.592 µM (active)	0.349 µM (active)	0.244 µM (active)	0.143 µM (active)	0.46 µM (active)	1.2 µM (inactive)	0.394 µM (active)	0.35 µM (active)	0.0479 µM (active)	0.315 µM (active)	0.281 µM (active)	0.498 µM (active)	0.927 µM (active)	0.198 µM (active)	0.176 µM (active)	0.502 µM (active)
CC(C(=O)[O-])S(=O)(=O)O.CCc1c2cc(OC)c(OC)cc2cc2c3cc(OC)c(OC)cc3cc[n+]12	58.9 µM (inactive)	69.7 µM (inactive)	36.9 µM (inactive)	15 µM (inactive)	9.73 µM (inactive)	17.8 µM (inactive)	13.3 µM (inactive)	4.78 µM (inactive)	27.5 µM (inactive)	51.1 µM (inactive)	41.5 µM (inactive)	14.2 µM (inactive)	13.3 µM (inactive)	10.2 µM (inactive)	12.4 µM (inactive)	58.7 µM (inactive)	41.7 µM (inactive)	20.4 µM (inactive)	9.89 µM (inactive)	21.7 µM (inactive)
CC(CCC(=O)O)(c1cc(Br)c(O)c(Br)c1)c1cc(Br)c(O)c(Br)c1	87.1 µM (inactive)	> 100 µM (inactive)	> 100 µM (inactive)	30.1 µM (inactive)	31.3 µM (inactive)	45.1 µM (inactive)	76 µM (inactive)	> 100 µM (inactive)	45.5 µM (inactive)	33.3 µM (inactive)	88.3 µM (inactive)	70.3 µM (inactive)	39.1 µM (inactive)	> 100 µM (inactive)	60.3 µM (inactive)	> 100 µM (inactive)	96.2 µM (inactive)	48.3 µM (inactive)	70 µM (inactive)	45 µM (inactive)
Cn1c2ccccc2c2ccc3c(c21)C(=O)C=CC3=O	3.52 µM (inactive)	3.88 µM (inactive)	4.27 µM (inactive)	10.3 µM (inactive)	20.5 µM (inactive)	22.9 µM (inactive)	9.48 µM (inactive)	2.43 µM (inactive)	4.18 µM (inactive)	8.65 µM (inactive)	15.4 µM (inactive)	16 µM (inactive)	0.796 µM (active)	1.82 µM (inactive)	7.24 µM (inactive)	14.1 µM (inactive)	28 µM (inactive)	0.755 µM (active)	6.82 µM (inactive)	11.1 µM (inactive)
O=c1c2c3c(sc2nc2n1N=CN(c1ccc(Cl)cc1)C2)CCCC3	75 µM (inactive)	> 100 µM (inactive)	19.3 µM (inactive)	2.26 µM (inactive)	42.3 µM (inactive)	> 100 µM (inactive)	55.7 µM (inactive)	35.8 µM (inactive)	36.3 µM (inactive)	> 100 µM (inactive)	> 100 µM (inactive)	21.3 µM (inactive)	15.7 µM (inactive)	52.6 µM (inactive)	19.4 µM (inactive)	> 100 µM (inactive)	50 µM (inactive)	17.9 µM (inactive)	56.6 µM (inactive)	> 100 µM (inactive)
CCN(CC)C1C(=O)NC1C#Cc1ccccc1 (stereo not given)	> 100 µM (inactive)	> 100 µM (inactive)	> 100 µM (inactive)	> 100 µM (inactive)	> 100 µM (inactive)	> 100 µM (inactive)	> 100 µM (inactive)	> 100 µM (inactive)	39.7 µM (inactive)	> 100 µM (inactive)	67.5 µM (inactive)	> 100 µM (inactive)	32 µM (inactive)	> 100 µM (inactive)	> 100 µM (inactive)	> 100 µM (inactive)	> 100 µM (inactive)	> 10 µM (inactive)	57.3 µM (inactive)	> 100 µM (inactive)
N#Cc1c(NC(=S)Nc2ccc(Cl)cc2)sc2c1CCN(N1CCc3c(sc(NC(=S)Nc4ccc(Cl)cc4)c3C#N)C1)C2	12.7 µM (inactive)	41 µM (inactive)	21 µM (inactive)	50.2 µM (inactive)	16.1 µM (inactive)	55.2 µM (inactive)	29.7 µM (inactive)	16 µM (inactive)	5.62 µM (inactive)	11 µM (inactive)	16.1 µM (inactive)	37.8 µM (inactive)	> 100 µM (inactive)	59.3 µM (inactive)	74.5 µM (inactive)	13.8 µM (inactive)	16 µM (inactive)	48.1 µM (inactive)	28.7 µM (inactive)	24 µM (inactive)
